What was measured:
Assay type in all cases: ADME
[1] = The drug is tested on the gut metagenome community of T-01 with ENA study accession number: PRJEB31790 for biotransformation under microaerobic condition. The drug concentrations were measured over 7 timepoints collected between 0 and 12 hours of incubation by liquid-chromatography-coupled mass spectrometry (LC–MS); design: dose 5 uM, timepoint 0, 0.75, 1.5, 3, 6, 9, 12 hours; conditions: 5 µM
[2] = The drug is tested on the gut metagenome community of P-02 with ENA study accession number: PRJEB31790 for biotransformation under microaerobic condition. The drug concentrations were measured over 7 timepoints collected between 0 and 12 hours of incubation by liquid-chromatography-coupled mass spectrometry (LC–MS); design: dose 5 uM, timepoint 0, 0.75, 1.5, 3, 6, 9, 12 hours; conditions: 5 µM
[3] = The drug is tested on Capnocytophaga ochracea strain: DSM7271 for biotransformation under anaerobic condition. The drug concentrations were measured over 6 timepoints collected between 0 and 12 hours of incubation by liquid-chromatography-coupled mass spectrometry (LC–MS); design: dose 5 uM, timepoint 0, 1.5, 3, 6, 9, 12 hours; conditions: 5 µM
[4] = The drug is tested on Bifidobacterium longum strain: DSM20088 for biotransformation under microaerobic condition. The drug concentrations were measured over 6 timepoints collected between 0 and 12 hours of incubation by liquid-chromatography-coupled mass spectrometry (LC–MS); design: dose 5 uM, timepoint 0, 1.5, 3, 6, 9, 12 hours; conditions: 5 µM
[5] = The drug is tested on the gut metagenome community of A-02 with ENA study accession number: PRJEB31790 for biotransformation under microaerobic condition. The drug concentrations were measured over 7 timepoints collected between 0 and 12 hours of incubation by liquid-chromatography-coupled mass spectrometry (LC–MS); design: dose 5 uM, timepoint 0, 0.75, 1.5, 3, 6, 9, 12 hours; conditions: 5 µM
[6] = The drug is tested on the gut metagenome community of T-04 with ENA study accession number: PRJEB31790 for biotransformation under anaerobic condition. The drug concentrations were measured over 7 timepoints collected between 0 and 12 hours of incubation by liquid-chromatography-coupled mass spectrometry (LC–MS); design: dose 5 uM, timepoint 0, 0.75, 1.5, 3, 6, 9, 12 hours; conditions: 5 µM
[7] = The drug is tested on the gut metagenome community of T-04 with ENA study accession number: PRJEB31790 for biotransformation under microaerobic condition. The drug concentrations were measured over 7 timepoints collected between 0 and 12 hours of incubation by liquid-chromatography-coupled mass spectrometry (LC–MS); design: dose 5 uM, timepoint 0, 0.75, 1.5, 3, 6, 9, 12 hours; conditions: 5 µM
[8] = The drug is tested on Streptococcus salivarius strain: DSM20560 for biotransformation under anaerobic condition. The drug concentrations were measured over 6 timepoints collected between 0 and 12 hours of incubation by liquid-chromatography-coupled mass spectrometry (LC–MS); design: dose 5 uM, timepoint 0, 1.5, 3, 6, 9, 12 hours; conditions: 5 µM
[9] = The drug is tested on Escherichia coli strain: DSM27469 for biotransformation under anaerobic condition. The drug concentrations were measured over 6 timepoints collected between 0 and 12 hours of incubation by liquid-chromatography-coupled mass spectrometry (LC–MS); design: dose 5 uM, timepoint 0, 1.5, 3, 6, 9, 12 hours; conditions: 5 µM
[10] = The drug is tested on the gut metagenome community of P-04 with ENA study accession number: PRJEB31790 for biotransformation under microaerobic condition. The drug concentrations were measured over 7 timepoints collected between 0 and 12 hours of incubation by liquid-chromatography-coupled mass spectrometry (LC–MS); design: dose 5 uM, timepoint 0, 0.75, 1.5, 3, 6, 9, 12 hours; conditions: 5 µM
[11] = The drug is tested on Roseburia intestinalis strain: DSM14610 for biotransformation under anaerobic condition. The drug concentrations were measured over 6 timepoints collected between 0 and 12 hours of incubation by liquid-chromatography-coupled mass spectrometry (LC–MS); design: dose 5 uM, timepoint 0, 1.5, 3, 6, 9, 12 hours; conditions: 5 µM
[12] = The drug is tested on the gut metagenome community of T-02 with ENA study accession number: PRJEB31790 for biotransformation under anaerobic condition. The drug concentrations were measured over 7 timepoints collected between 0 and 12 hours of incubation by liquid-chromatography-coupled mass spectrometry (LC–MS); design: dose 5 uM, timepoint 0, 0.75, 1.5, 3, 6, 9, 12 hours; conditions: 5 µM
[13] = The drug is tested on Streptococcus anginosus strain: DSM20563 for biotransformation under microaerobic condition. The drug concentrations were measured over 6 timepoints collected between 0 and 12 hours of incubation by liquid-chromatography-coupled mass spectrometry (LC–MS); design: dose 5 uM, timepoint 0, 1.5, 3, 6, 9, 12 hours; conditions: 5 µM
[14] = The drug is tested on the gut metagenome community of T-02 with ENA study accession number: PRJEB31790 for biotransformation under microaerobic condition. The drug concentrations were measured over 7 timepoints collected between 0 and 12 hours of incubation by liquid-chromatography-coupled mass spectrometry (LC–MS); design: dose 5 uM, timepoint 0, 0.75, 1.5, 3, 6, 9, 12 hours; conditions: 5 µM
[15] = The drug is tested on Lactobacillus reuteri strain: DSM20016 for biotransformation under microaerobic condition. The drug concentrations were measured over 6 timepoints collected between 0 and 12 hours of incubation by liquid-chromatography-coupled mass spectrometry (LC–MS); design: dose 5 uM, timepoint 0, 1.5, 3, 6, 9, 12 hours; conditions: limosilactobacillus reuteri, 5 µM
[16] = The drug is tested on the gut metagenome community of T-03 with ENA study accession number: PRJEB31790 for biotransformation under anaerobic condition. The drug concentrations were measured over 7 timepoints collected between 0 and 12 hours of incubation by liquid-chromatography-coupled mass spectrometry (LC–MS); design: dose 5 uM, timepoint 0, 0.75, 1.5, 3, 6, 9, 12 hours; conditions: 5 µM
[17] = The drug is tested on Lactobacillus paracasei strain: ATCC27092 for biotransformation under microaerobic condition. The drug concentrations were measured over 6 timepoints collected between 0 and 12 hours of incubation by liquid-chromatography-coupled mass spectrometry (LC–MS); design: dose 5 uM, timepoint 0, 1.5, 3, 6, 9, 12 hours; conditions: lacticaseibacillus paracasei, 5 µM
[18] = The drug is tested on Gemella haemolysans strain: DSM107751 for biotransformation under anaerobic condition. The drug concentrations were measured over 6 timepoints collected between 0 and 12 hours of incubation by liquid-chromatography-coupled mass spectrometry (LC–MS); design: dose 5 uM, timepoint 0, 1.5, 3, 6, 9, 12 hours; conditions: 5 µM
[19] = The drug is tested on the gut metagenome community of A-05 with ENA study accession number: PRJEB31790 for biotransformation under microaerobic condition. The drug concentrations were measured over 7 timepoints collected between 0 and 12 hours of incubation by liquid-chromatography-coupled mass spectrometry (LC–MS); design: dose 5 uM, timepoint 0, 0.75, 1.5, 3, 6, 9, 12 hours; conditions: 5 µM
[20] = The drug is tested on Streptococcus salivarius strain: DSM20560 for biotransformation under microaerobic condition. The drug concentrations were measured over 6 timepoints collected between 0 and 12 hours of incubation by liquid-chromatography-coupled mass spectrometry (LC–MS); design: dose 5 uM, timepoint 0, 1.5, 3, 6, 9, 12 hours; conditions: 5 µM
[21] = The drug is tested on Streptococcus sanguinis strain: DSM20567 for biotransformation under microaerobic condition. The drug concentrations were measured over 6 timepoints collected between 0 and 12 hours of incubation by liquid-chromatography-coupled mass spectrometry (LC–MS); design: dose 5 uM, timepoint 0, 1.5, 3, 6, 9, 12 hours; conditions: 5 µM
[22] = The drug is tested on Lactobacillus reuteri strain: DSM20016 for biotransformation under anaerobic condition. The drug concentrations were measured over 6 timepoints collected between 0 and 12 hours of incubation by liquid-chromatography-coupled mass spectrometry (LC–MS); design: dose 5 uM, timepoint 0, 1.5, 3, 6, 9, 12 hours; conditions: limosilactobacillus reuteri, 5 µM
[23] = The drug is tested on the gut metagenome community of A-06 with ENA study accession number: PRJEB31790 for biotransformation under anaerobic condition. The drug concentrations were measured over 7 timepoints collected between 0 and 12 hours of incubation by liquid-chromatography-coupled mass spectrometry (LC–MS); design: dose 5 uM, timepoint 0, 0.75, 1.5, 3, 6, 9, 12 hours; conditions: 5 µM
[24] = The drug is tested on Escherichia coli strain: DSM27469 for biotransformation under microaerobic condition. The drug concentrations were measured over 6 timepoints collected between 0 and 12 hours of incubation by liquid-chromatography-coupled mass spectrometry (LC–MS); design: dose 5 uM, timepoint 0, 1.5, 3, 6, 9, 12 hours; conditions: 5 µM
[25] = The drug is tested on the gut metagenome community of T-03 with ENA study accession number: PRJEB31790 for biotransformation under microaerobic condition. The drug concentrations were measured over 7 timepoints collected between 0 and 12 hours of incubation by liquid-chromatography-coupled mass spectrometry (LC–MS); design: dose 5 uM, timepoint 0, 0.75, 1.5, 3, 6, 9, 12 hours; conditions: 5 µM

Structure (SMILES)	Bacterial Biotransformation [1]	Bacterial Biotransformation [2]	Bacterial Biotransformation [3]	Bacterial Biotransformation [4]	Bacterial Biotransformation [5]	Bacterial Biotransformation [6]	Bacterial Biotransformation [7]	Bacterial Biotransformation [8]	Bacterial Biotransformation [9]	Bacterial Biotransformation [10]	Bacterial Biotransformation [11]	Bacterial Biotransformation [12]	Bacterial Biotransformation [13]	Bacterial Biotransformation [14]	Bacterial Biotransformation [15]	Bacterial Biotransformation [16]	Bacterial Biotransformation [17]	Bacterial Biotransformation [18]	Bacterial Biotransformation [19]	Bacterial Biotransformation [20]	other results
CO[C@H]1C[C@@H]2CC[C@@H](C)[C@@](O)(O2)C(=O)C(=O)N2CCCC[C@H]2C(=O)O[C@H]([C@H](C)C[C@@H]2CC[C@@H](O)[C@H](OC)C2)CC(=O)[C@H](C)/C=C(\C)[C@@H](O)[C@@H](OC)C(=O)[C@H](C)C[C@H](C)/C=C/C=C/C=C/1C [SIROLIMUS]	Compound NOT metabolized	Compound NOT metabolized	Compound metabolized	Compound NOT metabolized	Compound metabolized	Compound NOT metabolized	Compound NOT metabolized	Compound metabolized	Compound NOT metabolized	Compound NOT metabolized	Compound metabolized	Compound metabolized	Compound NOT metabolized	Compound metabolized	Compound NOT metabolized	Compound NOT metabolized	Compound NOT metabolized	Compound metabolized	Compound metabolized	Compound NOT metabolized	Bacterial Biotransformation [21]: Compound NOT metabolized; Bacterial Biotransformation [22]: Compound NOT metabolized; Bacterial Biotransformation [23]: Compound metabolized; Bacterial Biotransformation [24]: Compound NOT metabolized; Bacterial Biotransformation [25]: Compound NOT metabolized
C=CC[C@@H]1/C=C(\C)C[C@H](C)C[C@H](OC)[C@H]2O[C@@](O)(C(=O)C(=O)N3CCCC[C@H]3C(=O)O[C@H](/C(C)=C/[C@@H]3CC[C@@H](O)[C@H](OC)C3)[C@H](C)[C@@H](O)CC1=O)[C@H](C)C[C@@H]2OC.O [TACROLIMUS]	Compound metabolized	Compound NOT metabolized	Compound NOT metabolized	Compound NOT metabolized	Compound metabolized	Compound NOT metabolized	Compound metabolized	Compound NOT metabolized	Compound NOT metabolized	Compound NOT metabolized	Compound metabolized	Compound metabolized	Compound NOT metabolized	Compound metabolized	Compound NOT metabolized	Compound NOT metabolized	Compound NOT metabolized	Compound NOT metabolized	Compound metabolized	Compound NOT metabolized	Bacterial Biotransformation [21]: Compound NOT metabolized; Bacterial Biotransformation [22]: Compound NOT metabolized; Bacterial Biotransformation [23]: Compound metabolized; Bacterial Biotransformation [24]: Compound NOT metabolized; Bacterial Biotransformation [25]: Compound NOT metabolized
